How the values were obtained:
Format in all cases: cell-based
[1] = test system: Escherichia coli; assay: Agar diffusion test, cytotoxic potential (ASTM F895); settings: antimicrobial composition in wells punched into inoculated agar, 78° F., 24 hours; FIG. 1
Description: The instant example evaluated various antimicrobial compositions for cytotoxic potential. Briefly, ASTM […] is a test method useful for assessing the cytotoxic potential of new materials and formulations and as part of a quality control program for established medical devices and components. Qualitative results of the potency of various antimicrobial compositions were evaluated using this test method. […] The testing wells were then compared to one another based on the zone of inhibition of cell or spore growth created for each well. Petri dishes were place in an incubator at 78° F. for 24 hours. The zones of inhibition around each well were then compared and the best two antimicrobial compositions from this example were utilized in subsequent testing.

[2] = test system: Staphylococcus aureus; assay: Antimicrobial activity under dynamic contact conditions (ASTM E2149-13a), dynamic shaker test, compositions comprising a polymer; settings: FIG. 3
Description: The instant example evaluated various antifoulant compositions for antimicrobial activity under dynamic contact conditions. Briefly, ASTM E2149-13a is a test standard for determining antimicrobial activity of antimicrobial compositions under dynamic contact conditions. The 2×2 inch antifoulant composition samples from Example 1 and Example 2 were placed in sterilized 500 mL flasks with 100 mL of distilled water.
For antifoulant compositions comprising a polymer, Staphylococcus aureus (gram-positive bacteria) were added to each flask at 3×10^6 VC/mL. For antifoulant compositions comprising a composite material, Escherichia coli (gram-negative bacteria) were added to each flask at approximately 1×10^6 cells/mL. Three samples (0.1 mL each) were taken immediately from each flask and spread on TSA plates. The flasks were incubated in a 37° C. shaking incubator at 200 rpm. Three samples (0.1 mL each) were removed and plated at 1 hour intervals for three hours. Plates were left for growth at 25° C. for 60 hours. Colonies were counted using Sphere Flash and the average VC/mL or colony forming units (CFU) were documented.

[3] = test system: gram-positive and gram-negative bacteria; assay: Laboratory testing, overall comparison of antimicrobials; settings: summary
Text: E. coli is a gram-negative bacteria that has a more complicated cell wall structure which makes this bacteria more difficult to penetrate and mitigate. In contrast, S. aureus is a gram positive bacteria and is naturally more susceptible to antimicrobials and, thus, may be easier to control.

## [O]=[Zn] [zinc oxide]
[1]
  inhibition of bacterial growth per visible zone of inhibition around the sample: demonstrated efficacy in inhibiting bacterial growth

## zinc pyrithione
[2]; S. aureus, dynamic fluid conditions, antifoulant composition comprising a polymer (HDPE)
  antibacterial efficacy: 99.9%
[2]; antimicrobials in antifoulant compositions comprising a polymer (HDPE), dynamic flow conditions
  relative antimicrobial efficacy among tested antimicrobials: most efficacious
[3]
  efficacies and performance with both gram-positive and gram-negative bacteria: highest efficacies and performance
[1]
  inhibition of bacterial growth per visible zone of inhibition around the sample: demonstrated efficacy in inhibiting bacterial growth

Source: patent US12604891B2, “Antifoulant marine structures compositions and methods thereof” (THE TEXAS A&M UNIVERSITY SYSTEM, priority 2020, dated 2026)
